# Test results published in US12630520B2, “Left-handed bicyclic morpholine and salt thereof, preparation method therefor, pharmaceutical composition, and use” (Institute of Materia Medica, Chinese Academy of Medical …, priority 2019, dated 2026).
# Key:
# [1] = test system: HepG2 cells; assay: 4-Acetamidophenol (APAP)-induced in vitro hepatocyte injury, MTT and LDH; type: cell-based, human; conditions: HepG2, 10 μM, 8 mM APAP
# Protocol: (§1) Human liver cancer HepG2 cell well retained the characteristics of normal human hepatocytes, and they were grown in a DMEM medium containing 10% of fetal calf cerium (containing 100 U/mL of penicillin and 100 μg/mL of streptomycin) at the culturing conditions: 37° C., 5% of CO2 and a saturated humidity. A solution containing 0.25% of trypsin and 0.02% of EDTA was used for digestions and passages.
# (§2) A MTT method was adopted. The HepG2 cells were inoculated in a 96-well cell culture plate, and after 24 hour cultures, the (+)IMM-H014, the (−)IMM-H014 and the (±)IMM-H014 were added in a non-toxic concentration whilst the 4-acetamidophenol (APAP, a final concentration of 8 mM) was added thereto. A Bicyclol positive control group, a solvent control group and a model group were set for the experiment. The culture was continued for 24 h. 100 μL of the culture solution was taken and centrifuged, and a full-automatic biochemical analyzer in a LDH detection kit was utilized to detect the LDH level therein. The remaining culture solution was discarded, and to each well, 100 μL of a MTT (0.5 mg/mL) solution was added to continue the culture for 4 hours. The MTT solution was discarded, and to each well, 150 μL of DMSO was added. The mixture was oscillated by a mixing oscillator, and the absorbance value was measured at a wavelength of 570 nm in a microplate reader. Cell survival rate (%)=(OD mean of administration group/OD mean of solvent control group)×100%.
# (§3) The data were presented as a number mean±standard deviation (x±SD).
# [2] = test system: HepG2 cells; assay: Carbon tetrachloride (CCl4)-induced in vitro hepatocyte injury, MTT; type: cell-based, human; conditions: HepG2, 10 μM
# Protocol: as §1, with “cells” for “cell”
# as §2, with “carbon tetrachloride (CCl4,” for “4-acetamidophenol (APAP,”, “0.6%)” for “8 mM)”, “They acted on the cells continuously” for “The culture was continued”, “h.” for “h. 100 μL of the culture solution was taken and centrifuged, and a full-automatic biochemical analyzer in a LDH detection kit was utilized to detect the LDH level therein.”, “The” for “The remaining”, “to” for “to continue the”
# as §3
smiles,measurement,setting,value
COC(=O)c1cc(OC)c2c(c1-c1c(CO)cc(OC)c3c1OCO3)OCO2 [Bicyclol],Survival rates (%),"[1]; 24 h, MTT",50.67%
same,OD Mean ± SD,"[1]; 24 h, MTT, 570 nm",0.454 ± 0.092
same,Cell survival rate increase (%),[1]; versus model group,32.2%
same,Survival rates (%),"[2]; 0.6% CCl4, 24 h, MTT",89.47%
same,OD Mean ± SD,"[2]; 0.6% CCl4, 24 h, MTT, 570 nm",0.819 ± 0.099
same,Cell survival rate increase (%),"[2]; 0.6% CCl4, versus model group",15.36%
